Source: patent US20250144067A1, “PERSONALIZED STARVATION THERAPY FOR CANCER” (Faeth Therapeutics, Inc., priority 2021, published 2025)
Counter-ions that a name gives are not always drawn.

Tests used:
[1] = tested on: NCI-H292 lung cancer cells; test: FDA drug screening, complete media vs cholesterol-free media without statin (TABLE 1); assay type: cell-based, human
[2] = tested on: NCI-H292 lung cancer cells; test: FDA drug screening, complete media vs cholesterol-free media with simvastatin (TABLE 2); assay type: cell-based, human; settings: for Cholesterol-free media + simvastatin (0.04 μM) / Complete Media: NCI-H292 cells
[3] = Complete minus Cholesterol-free, >0 enhanced anti-cancer activity, about 0 neutral, <0 antagonist
[4] = NCI-H292 cells, cholesterol-free media without statin, FDA drug library screen
[5] = NCI-H292 cells, complete media, FDA drug library screen
[6] = drug in cholesterol-free media with simvastatin 0.04 μM
[7] = complete media vs cholesterol-free media + simvastatin (0.04 μM), >0 enhanced anti-cancer activity, about 0 neutral, <0 antagonist
[8] = complete vs cholesterol-free media, >0 enhanced anti-cancer activity, about 0 neutral, <0 antagonist
[9] = FDA drug library screen, cholesterol-free media with simvastatin 0.04 μM
[10] = FDA drug library screen, complete media
[11] = complete media minus cholesterol-free media + simvastatin, >0 enhanced anti-cancer activity, about 0 neutral, <0 antagonist
[12] = FDA library drug in cholesterol-free media with simvastatin 0.04 μM
[13] = FDA library drug in complete media
[14] = NCI-H292 cells, cholesterol-free media without statin
[15] = Complete minus Cholesterol-free, […]
[16] = complete media vs cholesterol-free media + simvastatin (0.04 μM), […]
[17] = NCI-H292 cells, FDA drug library screen, cholesterol-free media without statin
[18] = NCI-H292 cells, FDA drug library screen, complete media

**Q.** How did the Difference [1, 3] turn out when C[C@@H]1[C@H](O)[C@@H](C)/C=C/C=C/C=C/C=C/C=C/C=C/C=C/[C@H](O[C@@H]2O[C@H](C)[C@@H](O)[C@H](N)[C@@H]2O)C[C@@H]2O[C@](O)(C[C@@H](O)C[C@@H](O)[C@H](O)CC[C@@H](O)C[C@@H](O)CC(=O)O[C@H]1C)C[C@H](O)[C@H]2C(=O)O [Amphotericin B] was run?
**A.** 0.05

**Q.** And the Cholesterol-free [1, 4]?
**A.** 1.082

**Q.** And the Complete [1, 5]?
**A.** 1.128

**Q.** What about the “Cholesterol-free media + simvastatin (0.04 μM)” value [2, 6] of the same compound?
**A.** 1.212

**Q.** And the “Complete Media” value ([2]; drug in complete media)?
**A.** 0.9521

**Q.** And the Difference [2, 7]?
**A.** −0.26

**Q.** COc1ccc(C2C(=O)c3ccccc3C2=O)cc1 [Anisindione] was tested. Which Cholesterol-free [1, 4] did it give?
**A.** 0.8915

**Q.** And the Complete [1, 5]?
**A.** 1.35

**Q.** What about the Difference [1, 8] of the same compound?
**A.** 0.46

**Q.** What about the “Cholesterol-free media + simvastatin (0.04 μM)” value [2, 9] of the same compound?
**A.** 1.296

**Q.** And the “Complete Media” value [2, 10]?
**A.** 1.617

**Q.** And the Difference [2, 11]?
**A.** 0.32

**Q.** What does the source list for CC(C)NC[C@@H](O)COc1ccc(CC(N)=O)cc1 [(R)-(+)-Atenolol]?
**A.** Difference [1, 3]: 0.07; Cholesterol-free [1, 4]: 0.8467; Complete [1, 5]: 0.9214; Cholesterol-free media + simvastatin (0.04 μM) [2, 12]: 1.166; Complete Media [2, 13]: 0.872; Difference [2, 7]: −0.29

**Q.** How did the Difference [1, 3] turn out when O=c1ccc2ccc(O)c(O)c2o1 [Daphnetin] was run?
**A.** −0.27

**Q.** And the Cholesterol-free [1, 14]?
**A.** 1.207

**Q.** And the Complete ([1]; NCI-H292 cells, complete media)?
**A.** 0.9359

**Q.** What about the “Cholesterol-free media + simvastatin (0.04 μM)” value [2, 6] of the same compound?
**A.** 1.124

**Q.** And the “Complete Media” value ([2]; drug in complete media)?
**A.** 0.9139

**Q.** What about the Difference [2, 7] of the same compound?
**A.** −0.21

**Q.** How did the Difference [1, 3] turn out when C[C@@H]1CCO[C@H]2Cn3cc(C(=O)NCc4ccc(F)cc4F)c(=O)c(O)c3C(=O)N12 [Dolutegravir (sodium)] was run?
**A.** −0.20

**Q.** And the Cholesterol-free [1, 14]?
**A.** 0.8373

**Q.** What about the Complete ([1]; NCI-H292 cells, complete media) of the same compound?
**A.** 0.6354

**Q.** And the “Cholesterol-free media + simvastatin (0.04 μM)” value ([2]; cholesterol-free media with simvastatin 0.04 μM, cell growth value in FDA drug screen)?
**A.** 0.4489

**Q.** And the “Complete Media” value ([2]; complete media, cell growth value in FDA drug screen)?
**A.** 0.5012

**Q.** And the Difference [2, 11]?
**A.** 0.05

**Q.** With Cl.NCC(=O)CCC(=O)O [5-Aminolevulinic acid (hydrochloride)] as the compound, how does the Difference [1, 15] read?
**A.** −0.75

**Q.** And the Cholesterol-free ([1]; NCI-H292 cells in cholesterol-free media without statin)?
**A.** 1.604

**Q.** What about the Complete ([1]; NCI-H292 cells in complete media) of the same compound?
**A.** 0.8558

**Q.** And the “Cholesterol-free media + simvastatin (0.04 μM)” value [2, 9]?
**A.** 1.091

**Q.** What about the “Complete Media” value [2, 10] of the same compound?
**A.** 1.01

**Q.** And the Difference [2, 16]?
**A.** −0.08

**Q.** Iproniazid (phosphate) was tested. Which Difference [1, 3] did it give?
**A.** −0.26

**Q.** And the Complete ([1]; NCI-H292 cells, complete media)?
**A.** 0.8468

**Q.** What about the Difference [2, 7] of the same compound?
**A.** −0.09

**Q.** How did the Difference [1, 3] turn out when CC(C)(CO)[C@@H](O)C(=O)NCCC(=O)[O-].CC(C)(CO)[C@@H](O)C(=O)NCCC(=O)[O-].[Ca+2] [D-Pantothenic acid (hemicalcium salt)] was run?
**A.** −0.04

**Q.** And the Cholesterol-free [1, 4]?
**A.** 0.8788

**Q.** And the Complete [1, 5]?
**A.** 0.8434

**Q.** And the “Cholesterol-free media + simvastatin (0.04 μM)” value [2, 12]?
**A.** 1.159

**Q.** What about the “Complete Media” value [2, 13] of the same compound?
**A.** 0.786

**Q.** And the Difference [2, 7]?
**A.** −0.37

**Q.** How did the Difference [1, 15] turn out when CO[C@@H]1[C@H](OC(=O)/C=C/C=C/C=C/C=C/C(=O)O)CC[C@]2(CO2)[C@H]1[C@@]1(C)O[C@@H]1CC=C(C)C [Fumagillin] was run?
**A.** −0.08

**Q.** And the Cholesterol-free [1, 17]?
**A.** 0.6031

**Q.** And the Complete [1, 18]?
**A.** 0.519

**Q.** And the “Cholesterol-free media + simvastatin (0.04 μM)” value [2, 12]?
**A.** 1.348

**Q.** What about the “Complete Media” value [2, 13] of the same compound?
**A.** 1.08

**Q.** What about the Difference [2, 16] of the same compound?
**A.** −0.27

**Q.** With CO/N=C(\C(=O)N[C@@H]1C(=O)N2C(C(=O)O)=C(COC(C)=O)CS[C@H]12)c1csc(N)n1 [Cefotaxime (sodium salt)] as the compound, how does the Cholesterol-free [1, 14] read?
**A.** 1.268

**Q.** And the Complete ([1]; NCI-H292 cells, complete media)?
**A.** 0.9622

**Q.** What about the Difference ([1]; complete vs cholesterol-free media, greater than 0 enhanced anti-cancer activity, about 0 neutral, below 0 antagonists) of the same compound?
**A.** −0.31

**Q.** What about the “Cholesterol-free media + simvastatin (0.04 μM)” value [2, 9] of the same compound?
**A.** 1.284

**Q.** What about the “Complete Media” value [2, 10] of the same compound?
**A.** 1.139

**Q.** And the Difference [2, 7]?
**A.** −0.15

**Q.** Which Difference ([1]; Complete minus Cholesterol-free, greater than 0 enhanced anti-cancer activity, about 0 neutral, below 0 antagonist) does the source give for CC(C)OC(=O)CCC/C=C\C[C@@H]1[C@@H](/C=C/C(F)(F)COc2ccccc2)[C@H](O)C[C@@H]1O [Tafluprost] here?
**A.** −0.18

**Q.** What about the Cholesterol-free [1, 17] of the same compound?
**A.** 0.9541

**Q.** What about the Complete [1, 18] of the same compound?
**A.** 0.7736

**Q.** And the “Cholesterol-free media + simvastatin (0.04 μM)” value [2, 6]?
**A.** 1.261

**Q.** What about the “Complete Media” value ([2]; drug in complete media) of the same compound?
**A.** 1.095

**Q.** And the Difference [2, 7]?
**A.** −0.17

**Q.** How did the Difference [1, 3] turn out when CN1C2CCCC1CC(NC(=O)c1nn(C)c3ccccc13)C2 (stereo not drawn) [Granisetron (Hydrochloride)] was run?
**A.** −0.26

**Q.** And the Cholesterol-free [1, 14]?
**A.** 1.123

**Q.** And the Complete ([1]; NCI-H292 cells, complete media)?
**A.** 0.8639

**Q.** What about the “Cholesterol-free media + simvastatin (0.04 μM)” value ([2]; cholesterol-free media with simvastatin 0.04 μM, FDA drug library screen (TABLE 2)) of the same compound?
**A.** 0.8994

**Q.** And the “Complete Media” value ([2]; complete media, FDA drug library screen (TABLE 2))?
**A.** 0.8536

**Q.** And the Difference ([2]; complete media minus cholesterol-free media + simvastatin (0.04 μM), >0 enhanced anti-cancer activity, about 0 neutral, <0 antagonist)?
**A.** −0.05

**Q.** Which Cholesterol-free [1, 4] does the source give for Cn1c(=O)c2c(ncn2CCO)n(C)c1=O [Etofylline] here?
**A.** 1.261

**Q.** And the Complete [1, 5]?
**A.** 1.355

**Q.** And the Difference [1, 8]?
**A.** 0.09

**Q.** What about the “Cholesterol-free media + simvastatin (0.04 μM)” value [2, 9] of the same compound?
**A.** 0.885

**Q.** What about the “Complete Media” value [2, 10] of the same compound?
**A.** 1.042

**Q.** And the Difference [2, 11]?
**A.** 0.16

**Q.** For CC[C@H](C)[C@@H]1NC(=O)[C@H](Cc2ccc(O)cc2)NC(=O)[C@@H](N)CSSC[C@@H](C(=O)N2CCC[C@H]2C(=O)N[C@@H](CC(C)C)C(=O)NCC(N)=O)NC(=O)[C@H](CC(N)=O)NC(=O)[C@H](CCC(N)=O)NC1=O [Oxytocin], which Cholesterol-free [1, 14] is on record?
**A.** 1.585

**Q.** And the Complete ([1]; NCI-H292 cells, complete media)?
**A.** 1.211

**Q.** And the Difference ([1]; complete vs cholesterol-free media, […])?
**A.** −0.37

**Q.** And the “Cholesterol-free media + simvastatin (0.04 μM)” value [2, 9]?
**A.** 1.057

**Q.** What about the “Complete Media” value [2, 10] of the same compound?
**A.** 0.9051

**Q.** And the Difference [2, 16]?
**A.** −0.15
